# Reference: US6515025B2, “Use of ethynyl alanine amino diol compounds to inhibit enzymatic conversion of angiotensinogen to angiotensin I” (Pharmacia Corporation, priority 1991, dated 2003)
# Legend:
# renin (human plasma) = molecular target: T1, renin (human plasma) (Homo sapiens, UniProt P00797); assay: Renin inhibitor species specificity, human plasma renin activity; type: biochemical
# T1 construct: the animal plasma is the source of both the renin substrate and the renin enzyme; from tissue
# T1 sequence (P00797 67-406): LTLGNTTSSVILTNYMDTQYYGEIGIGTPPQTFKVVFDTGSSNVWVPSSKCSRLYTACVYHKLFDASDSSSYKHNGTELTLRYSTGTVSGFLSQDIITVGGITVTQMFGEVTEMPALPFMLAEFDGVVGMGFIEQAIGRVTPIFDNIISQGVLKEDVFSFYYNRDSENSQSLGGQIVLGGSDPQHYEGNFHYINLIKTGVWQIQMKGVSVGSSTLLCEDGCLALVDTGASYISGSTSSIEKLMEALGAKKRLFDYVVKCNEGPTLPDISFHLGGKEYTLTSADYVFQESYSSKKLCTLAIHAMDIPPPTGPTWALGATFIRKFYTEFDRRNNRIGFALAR
# Procedure: (§1) Blood was collected in a 10 ml Becton Dickinson vacutainer tube with 0.1 ml of 15% EDTA (K3) solution (15 mg) from normal animals or high renin animals; i.e., those pre-treated with 5 mg/kg of Lasix® intramuscularly 2 times within a 6 hour interval 24 hours prior to bleeding. The blood was then centrifuged at 2500 RPM for 20 minutes and the plasma from the various species respectively pooled, aliquoted and stored in the freezer. The human plasma source was taking a prescription of an angiotensin converting enzyme inhibitor.
# (§2) The plasma renin activity assay is a modification of the human renin inhibition test in that the animal plasma is the source of both the renin substrate and the renin enzyme. In a total volume of 0.1 ml, 90 mM Tris-acetate buffer, pH 7.5, 12 mM sodium EDTA, 0.012 mg/ml neomycin sulfate, 0.9 mg/ml bovine serum albumin, 1.61 mM phenylmethyl sulfonyl fluoride, 4 mM 8-hydroxyquinoline and 0.09 ml of the animal or human plasmas were incubated for 2 hours at 37° C. in a shaking water bath or at 4° C. in an ice bath in the presence or absence of renin inhibitors. The produced angiotensin I was determined by radioimmunoassay (New England Nuclear kit).
# (§3) The amount of angiotensin I generated during the 2 hours at 4° C. was usually less than 5% of that activity produced at 37° C.; however, the 4° C. background values were nevertheless subtracted from the 37° C. ones for the 100% activity values. The renin inhibitors were assayed in duplicate using 5 concentrations and the data is expressed as a percent of the 100% total renin activity.
# [1] = molecular target: T2, renin (Marmoset Monkey plasma) (Callithrix jacchus, UniProt Q9TSZ1); assay: Renin inhibitor species specificity, marmoset plasma renin activity; type: biochemical
# T2 construct: the animal plasma is the source of both the renin substrate and the renin enzyme; from tissue; host or cells: pooled marmoset plasma
# T2 sequence (Q9TSZ1 61-400): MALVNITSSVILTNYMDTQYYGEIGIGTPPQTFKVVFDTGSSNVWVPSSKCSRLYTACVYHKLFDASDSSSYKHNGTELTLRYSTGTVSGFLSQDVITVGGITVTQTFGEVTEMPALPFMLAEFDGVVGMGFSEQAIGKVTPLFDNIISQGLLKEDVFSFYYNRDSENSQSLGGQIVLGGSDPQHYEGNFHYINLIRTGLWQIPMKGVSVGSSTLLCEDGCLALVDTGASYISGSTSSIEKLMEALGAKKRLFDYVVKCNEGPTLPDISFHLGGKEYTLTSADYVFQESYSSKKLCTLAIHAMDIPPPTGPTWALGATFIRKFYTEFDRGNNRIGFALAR
# Procedure: as §1, §2, §3
structure (smiles),measurement,setting,value
"C#CC[C@H](NC(=O)C(CC(=O)N(C)CCN(C)C)Cc1ccccc1)C(=O)NC(CC1CCCCC1)[C@@H](O)C(O)CC(C)C (relative stereo) [Example 1, N1-[1R*-[[[1S,1R*-(cyclohexylmethyl)-2S*,3R*-dihydroxy-5-methylhexyl]amino]carbonyl]-3-butynyl]-N4-[2-(dimethylamino)ethyl]-N4-methyl-2S*-(phenylmethyl)butanediamide]",% of Total Renin Activity,renin (human plasma); 1 nM,90%
same,% of Total Renin Activity,renin (human plasma); 4 nM,50%
same,% of Total Renin Activity,renin (human plasma); 16 nM,10%
same,% of Total Renin Activity,[1]; 0.25 nM,94%
same,% of Total Renin Activity,[1]; 1 nM,75%
same,% of Total Renin Activity,[1]; 4 nM,42%
same,% of Total Renin Activity,[1]; 16 nM,11%
